Assay: Antagonist activity at Hedgehog receptor expressed in 10t1/2 cells by Gli-luciferase reporter gene assay
Format: functional, cell-based

SMILES	IC50
CC(C)n1c(CNC(=O)Nc2cccc(C(F)(F)F)c2)nc2ccccc2c1=O	4300 nM
CCc1nc2ccccc2c(=O)n1-c1ccc(F)cc1	> 10000 nM
O=C(NCc1nc2ccccc2c(=O)n1-c1ccc(F)cc1)Nc1cccc(C(F)(F)F)c1	700 nM
O=C(NCc1nc2ccccc2c(=O)n1-c1ccc(F)cc1)Nc1ccc(Cl)c(C(F)(F)F)c1	70 nM
CC(NC(=O)Nc1cccc(C(F)(F)F)c1)c1nc2ccccc2c(=O)n1-c1ccc(F)cc1 (stereo not given)	4700 nM
CC(c1nc2ccccc2c(=O)n1-c1ccc(F)cc1)N(C)C(=O)Nc1cccc(C(F)(F)F)c1 (stereo not given)	1400 nM
CNC(C)c1nc2ccccc2c(=O)n1-c1ccc(F)cc1 (stereo not given)	> 10000 nM
COc1cc(NC(=O)NCc2nc3ccccc3c(=O)n2-c2ccc(F)cc2)cc(C(F)(F)F)c1	250 nM
CN(Cc1nc2ccccc2c(=O)[nH]1)C(=O)Nc1cccc(C(F)(F)F)c1	> 10000 nM
O=C(NCc1nc2ccccc2c(=O)n1-c1ccc(F)cc1)Nc1cc(Cl)nc(Cl)c1	110 nM

Source: ChEMBL document CHEMBL1143226, “Potent inhibitors of the hedgehog signaling pathway” (J Med Chem, 2008)
